Data as given in paper PMC11905058, “Novel Leech Antimicrobial Peptides, Hirunipins: Real‐Time 3D Monitoring of Antimicrobial and Antibiofilm Mechanisms Using Optical Diffraction Tomography” (Advanced Science, 2025).
No end group written: not given here.

Key:
MDRKP (328-83) = type: cell-based, Klebsiella pneumonia; details: 24 h
Experimental: (§1) The MICs of the peptides were measured by the Clinical and Laboratory Standards Institute (CLSI) broth microdilution method, as outlined in a previous study.^[ [26], [27] ^]
(§2) Microbial Strains and Cell Lines: Multiple bacterial strains were used in this study. Standard stains included Escherichia coli (KCTC 1682), Pseudomonas aeruginosa (KCTC 1637), Staphylococcus aureus (KCTC1621) and Staphylococcus epidermidis (KCTC 1917) supplied from the Korean Collection for Type Cultures (KCTC) of the Korea Research Institute of Bioscience and Biotechnology (KRIBB). Clinically isolated multidrug-resistant bacteria included multidrug-resistant Klebsiella pneumonia (MDRKP 328-83), multidrug-resistant Acinetobacter baumannii (MDRAB 329-53), multidrug-resistant Pseudomonas aeruginosa (MDRPA 314-69), multidrug-resistant Enterobacter cloacae (MDRE 328-84) and multidrug-resistant Escherichia coli (MDREC 329-66) provided from Hospital of Chosun University, Korea. All bacterial strains were stored in 20% glycerol at −80 °C. For the subsequent experiments, the bacteria were recovered and cultured in the corresponding enrichment broth at 37 °C. The mouse macrophage RAW264.7, mouse fibroblast NIH-3T3 and human keratinocyte HaCat cells were cultured in Dulbecco’s modified Eagle’s medium (DMEM), supplemented with 10% (v/v) of fetal bovine serum (Sigma-Aldrich), 100 U/mL of penicillin and 0.1 mg/mL of streptomycin, at 37 °C in the presence of 5% CO2
(§3) Minimal Inhibitory Concentrations (MICs): Bacteria were grown to mid-logarithmic phase and diluted in Mueller-Hinton broth (MHB) (Difco). The bacterial suspension (1×10^6 CFU/well) was added to a 96-well microtiter plate along with a two-fold serial dilution of samples. The plate was incubated at 37 °C for 24 hours and the bacterial growth inhibition was assessed by measuring the optical density using an ELISA plate reader. The minimum inhibitory concentration (MIC) was defined as the lowest concentration of samples that prevented visible bacterial growth.

MDRPA (314-69) = type: cell-based, Pseudomonas aeruginosa; details: 24 h
Experimental: as §1, §2, §3

MDREC (329-66) = type: cell-based, Escherichia coli; details: 24 h
Experimental: as §1, §2, §3

E. coli (KCTC 1682) = type: cell-based, Escherichia coli; details: KCTC 1682, 24 h
Experimental: as §3, with “The salt sensitivity of the peptides was also analyzed. […] The MIC values in the physiological environment were determined as described above, and data were acquired from three independent assays performed in triplicate. Minimal” for “Minimal”

[1] = test system: Pseudomonas aeruginosa [KCTC 1637]; type: cell-based; details: KCTC 1637, 24 h
Experimental: as §1, §3

[2] = test system: Staphylococcus aureus [KCTC1621]; type: cell-based; details: KCTC1621, 24 h
Experimental: as §1, §3

[3] = test system: Escherichia coli [KCTC 1682]; type: cell-based; details: KCTC 1682, 24 h
Experimental: as §1, §3

[4] = test system: Staphylococcus epidermidis [KCTC 1917]; type: cell-based; details: KCTC 1917, 24 h
Experimental: as §1, §3

MDRE (328-84) = type: cell-based, Enterobacter cloacae; details: 24 h
Experimental: as §1, §2, §3

S. aureus (KCTC1621) = type: cell-based, Staphylococcus aureus; details: KCTC1621, 24 h
Experimental: as §3, with “The salt sensitivity of the peptides was also analyzed. […] The MIC values in the physiological environment were determined as described above, and data were acquired from three independent assays performed in triplicate. Minimal” for “Minimal”

MDRAB (329-53) [5] = details: for Interpretation of FICI / FICI: fractional inhibitory concentration index, FICA + FICB: antibiotic in combination with hirunipin 2; for MICA: MIC of antibiotic alone: checkerboard, MDRAB, 1×10^6 CFU/mL; for FICA: fractional inhibitory concentration of antibiotic ([A] / MICA) / [A]: MIC of antibiotic in combination: in combination with hirunipin 2
Experimental: Synergy testing by checkerboard assay: Briefly, each 96-well microtiter plate was inoculated with two-fold serial dilutions of two antibiotics, ranging from 1/8 MIC to 2 MIC, such that one antibiotic was inoculated in the columns and the other in the rows. Then, MDRAB (329-53) cells were inoculated at a concentration of 1× 10^6 CFU/mL. The plates were incubated overnight under static conditions and observed visually.

MDRAB (329-53) [6] = type: cell-based, Acinetobacter baumannii; details: 24 h
Experimental: as §1, §2, §3

Compound	Minimum inhibitory concentrations, MDRKP (328-83) (MDRKP (328-83)) [µg/mL]	Minimum inhibitory concentrations, MDRPA (314-69) (MDRPA (314-69)) [µg/mL]	Minimum inhibitory concentrations, MDREC (329-66) (MDREC (329-66)) [µg/mL]	MIC against E. coli (KCTC 1682), 4 µM FeCl3 (E. coli (KCTC 1682)) [µg/mL]	MIC against E. coli (KCTC 1682), 6 µM NH4Cl (E. coli (KCTC 1682)) [µg/mL]	MIC against E. coli (KCTC 1682), 1 mM MgCl2 (E. coli (KCTC 1682)) [µg/mL]	MIC against E. coli (KCTC 1682), 2.5 mM CaCl2 (E. coli (KCTC 1682)) [µg/mL]	MIC against E. coli (KCTC 1682), 4.5 mM KCl (E. coli (KCTC 1682)) [µg/mL]	MIC against E. coli (KCTC 1682), 150 mM NaCl (E. coli (KCTC 1682)) [µg/mL]	MIC against E. coli (KCTC 1682), 25% Human serum (E. coli (KCTC 1682)) [µg/mL]	MIC against E. coli (KCTC 1682), Control (E. coli (KCTC 1682)) [µg/mL]	Minimum inhibitory concentration (MIC), Pseudomonas aeruginosa [KCTC 1637] [1] [µg/mL]	Minimum inhibitory concentration (MIC), Staphylococcus aureus [KCTC1621] [2] [µg/mL]	Minimum inhibitory concentration (MIC), Escherichia coli [KCTC 1682] [3] [µg/mL]	Minimum inhibitory concentration (MIC), Staphylococcus epidermidis [KCTC 1917] [4] [µg/mL]	Minimum inhibitory concentrations, MDRE (328-84) (MDRE (328-84)) [µg/mL]	MIC against S. aureus (KCTC1621), 4 µM FeCl3 (S. aureus (KCTC1621)) [µg/mL]	MIC against S. aureus (KCTC1621), 6 µM NH4Cl (S. aureus (KCTC1621)) [µg/mL]	MIC against S. aureus (KCTC1621), 1 mM MgCl2 (S. aureus (KCTC1621)) [µg/mL]	MIC against S. aureus (KCTC1621), 2.5 mM CaCl2 (S. aureus (KCTC1621)) [µg/mL]	other results
MKSINLKKVVKSIIKKILNSSF-NH2 [Hirunipin 2]	128	16	16	8	8	32	8	8	16	64	32	32	32	32	32	32	32	16	32	32	MIC against S. aureus (KCTC1621), 4.5 mM KCl (S. aureus (KCTC1621)): 32 µg/mL; MIC against S. aureus (KCTC1621), 150 mM NaCl (S. aureus (KCTC1621)): 32 µg/mL; MIC against S. aureus (KCTC1621), 25% Human serum (S. aureus (KCTC1621)): 64 µg/mL; MIC against S. aureus (KCTC1621), Control (S. aureus (KCTC1621)): 32 µg/mL; MICB: MIC of hirunipin 2 alone (MDRAB (329-53) [5]): 64 µg/mL; Minimum inhibitory concentrations, MDRAB (329-53) (MDRAB (329-53) [6]): 64 µg/mL
O=C(O)c1cn(C2CC2)c2cc(N3CCNCC3)c(F)cc2c1=O [CIP, Ciprofloxacin]	–	–	–	–	–	–	–	–	–	–	–	–	–	–	–	–	–	–	–	–	Interpretation of FICI (MDRAB (329-53) [5]): synergy (FICI ≤ 0.5 was interpreted as synergy); MICA: MIC of antibiotic alone (MDRAB (329-53) [5]): 128 µg/mL; FICA: fractional inhibitory concentration of antibiotic ([A] / MICA) (MDRAB (329-53) [5]): 0.25; [A]: MIC of antibiotic in combination (MDRAB (329-53) [5]): 32 µg/mL
LLKKLLRSLIKPAIMKIINTPPQEKLQK-NH2 [Hirunipin 1]	>128	64	64	128	128	256	256	256	256	128	64	32	64	64	32	>128	64	256	256	256	MIC against S. aureus (KCTC1621), 4.5 mM KCl (S. aureus (KCTC1621)): 256 µg/mL; MIC against S. aureus (KCTC1621), 150 mM NaCl (S. aureus (KCTC1621)): 256 µg/mL; MIC against S. aureus (KCTC1621), 25% Human serum (S. aureus (KCTC1621)): 256 µg/mL; MIC against S. aureus (KCTC1621), Control (S. aureus (KCTC1621)): 64 µg/mL; Minimum inhibitory concentrations, MDRAB (329-53) (MDRAB (329-53) [6]): >128 µg/mL
O=C(N[C@H](CO)[C@H](O)c1ccc([N+](=O)[O-])cc1)C(Cl)Cl [CHL, Chloramphenicol]	–	–	–	–	–	–	–	–	–	–	–	–	–	–	–	–	–	–	–	–	FICI: fractional inhibitory concentration index, FICA + FICB (MDRAB (329-53) [5]): 0.1875; Interpretation of FICI (MDRAB (329-53) [5]): synergy (FICI ≤ 0.5 was interpreted as synergy); MICA: MIC of antibiotic alone (MDRAB (329-53) [5]): 1024 µg/mL; FICA: fractional inhibitory concentration of antibiotic ([A] / MICA) (MDRAB (329-53) [5]): 0.125; [A]: MIC of antibiotic in combination (MDRAB (329-53) [5]): 128 µg/mL
CO[C@H]1/C=C/O[C@@]2(C)Oc3c(C)c(O)c4c(O)c(c(/C=N/N5CCN(C)CC5)c(O)c4c3C2=O)NC(=O)/C(C)=C\C=C\[C@H](C)[C@H](O)[C@@H](C)[C@@H](O)[C@@H](C)[C@H](OC(C)=O)[C@@H]1C [RIF, Rifampicin]	–	–	–	–	–	–	–	–	–	–	–	–	–	–	–	–	–	–	–	–	FICI: fractional inhibitory concentration index, FICA + FICB (MDRAB (329-53) [5]): 0.3125; Interpretation of FICI (MDRAB (329-53) [5]): synergy (FICI ≤ 0.5 was interpreted as synergy); MICA: MIC of antibiotic alone (MDRAB (329-53) [5]): 16 µg/mL; FICA: fractional inhibitory concentration of antibiotic ([A] / MICA) (MDRAB (329-53) [5]): 0.0625; [A]: MIC of antibiotic in combination (MDRAB (329-53) [5]): 1 µg/mL
YFKIIKFLPKALKCLLPQKHKEHGNL-NH2 [Hirunipin 3]	>128	>128	128	32	64	256	32	128	128	256	128	128	128	128	64	>128	>256	256	256	256	MIC against S. aureus (KCTC1621), 4.5 mM KCl (S. aureus (KCTC1621)): 256 µg/mL; MIC against S. aureus (KCTC1621), 150 mM NaCl (S. aureus (KCTC1621)): 256 µg/mL; MIC against S. aureus (KCTC1621), 25% Human serum (S. aureus (KCTC1621)): >256 µg/mL; MIC against S. aureus (KCTC1621), Control (S. aureus (KCTC1621)): 128 µg/mL; Minimum inhibitory concentrations, MDRAB (329-53) (MDRAB (329-53) [6]): >128 µg/mL
